In the NIST ThermoML archive (doi:10.1021/je060291c):
Where “and” joins values, the source holds several entries; their conditions need not be identical. Equal values may be shown once.

Test: wn = mass fraction of the nth substance listed
Conditions: Liquid, Pulse-echo method, w2 = 0.49

CC(F)(F)F [1,1,1-trifluoroethane] + FC(F)C(F)(F)F
speed of sound
Conditions	288.18 K	298.19 K	308.19 K	318.2 K	328.17 K	338.18 K
1290 kPa	–	375.4 m/s	–	–	–	–
1300 kPa	–	375.4 m/s and 375.5 m/s	–	–	–	–
1360 kPa	–	376.9 m/s	–	–	–	–
1510 kPa	–	379.6 m/s	–	–	–	–
1630 kPa	–	381.8 m/s	–	–	–	–
1670 kPa	–	–	324.1 m/s and 324.2 m/s	–	–	–
1740 kPa	–	–	326 m/s	–	–	–
1750 kPa	–	384.2 m/s	–	–	–	–
1840 kPa	–	–	328.4 m/s	–	–	–
2010 kPa	440.2 m/s	388.7 m/s	332.4 m/s	–	–	–
2120 kPa	–	–	–	270.3 m/s	–	–
2180 kPa	–	–	–	272.6 m/s	–	–
2250 kPa	444 m/s	393 m/s	338 m/s	274.9 m/s	–	–
2360 kPa	–	–	–	278.2 m/s	–	–
2510 kPa	447.4 m/s	397.3 m/s	343.6 m/s	282.9 m/s	–	–
2660 kPa	–	–	–	–	211.8 m/s and 211.9 m/s	–
2750 kPa	450.9 m/s	401.5 m/s	348.9 m/s	290.4 m/s	216.9 m/s	–
2880 kPa	–	–	–	–	223.4 m/s	–
3010 kPa	454.3 m/s	405.6 m/s	354 m/s	297.5 m/s	229.4 m/s	–
3380 kPa	–	–	–	–	–	154.6 m/s
3440 kPa	–	–	–	–	–	160.1 m/s
3500 kPa	460.9 m/s	413.4 m/s	363.8 m/s	310.3 m/s	249.7 m/s	165.9 m/s
3660 kPa	–	–	–	–	–	178.1 m/s
3830 kPa	–	–	–	–	–	189 m/s
4000 kPa	467.5 m/s	421.1 m/s	373.1 m/s	322.1 m/s	266.3 m/s	199.1 m/s
4250 kPa	–	–	–	–	–	211.1 m/s
4500 kPa	473.5 m/s	428.4 m/s	381.8 m/s	333 m/s	280.9 m/s	221.8 m/s
5000 kPa	479.7 m/s	435.4 m/s	390.1 m/s	343.1 m/s	294 m/s	240.3 m/s
6010 kPa	491.5 m/s	448.7 m/s	405.6 m/s	361.7 m/s	316.6 m/s	269.8 m/s
7010 kPa	502.5 m/s	461.1 m/s	419.8 m/s	378.2 m/s	336.3 m/s	293.8 m/s
8000 kPa	513.1 m/s	473 m/s	433.3 m/s	393.4 m/s	353.7 m/s and 354 m/s and 353.9 m/s	314.4 m/s
9000 kPa	523.2 m/s	484.3 m/s	445.6 m/s	407.7 m/s	370 m/s	333 m/s
10000 kPa	532.9 m/s	494.9 m/s	457.5 m/s	420.9 m/s	384.7 m/s	349.3 m/s
12000 kPa	551.3 m/s	515.1 m/s	479.6 m/s	445 m/s	411.3 m/s	378.7 m/s
14000 kPa	568.6 m/s	533.7 m/s	499.8 m/s	466.9 m/s	435.1 m/s	404.3 m/s
16010 kPa	585 m/s	551.1 m/s	518.5 m/s	487 m/s	456.6 m/s	427.4 m/s
18000 kPa	600.2 m/s	567.6 m/s	536.1 m/s	505.5 m/s	476.5 m/s	448.3 m/s
20000 kPa	614.9 m/s	583.2 m/s	552.6 m/s	523 m/s	494.7 m/s	467.8 m/s
23000 kPa	635.8 m/s	605.1 m/s	575.7 m/s	547.4 m/s	520.4 m/s	494.6 m/s
26000 kPa	655.3 m/s	625.5 m/s	597.3 m/s	569.9 m/s	543.8 m/s	519 m/s
29010 kPa	673.8 m/s	645.1 m/s	617.4 m/s	591 m/s	565.9 m/s	541.7 m/s
32000 kPa	691.2 m/s	663.2 m/s	636.3 m/s	610.7 m/s	586.4 m/s	563 m/s
35000 kPa	708.3 m/s	680.8 m/s	654.6 m/s and 654.3 m/s	629.4 m/s	605.5 m/s and 605.8 m/s	583 m/s
40000 kPa	734.9 m/s	708.2 m/s	682.9 m/s	658.7 m/s	635.7 m/s	613.8 m/s
45000 kPa	759.7 m/s	734 m/s	709.3 m/s	685.8 m/s	663.5 m/s	642.4 m/s
50000 kPa	783.2 m/s	758 m/s	734 m/s	711.3 m/s	689.5 m/s	669 m/s
55000 kPa	805.1 m/s	780.7 m/s and 780.9 m/s	757.3 m/s and 757.1 m/s	734.9 m/s	714.1 m/s	693.9 m/s
60000 kPa	826.3 m/s	802.3 m/s and 802.4 m/s	779.5 m/s	757.7 m/s	737.1 m/s	717.2 m/s
65000 kPa	846.7 m/s	823.1 m/s	800.7 m/s	779.3 m/s	759 m/s	739.8 m/s

Conditions	speed of sound [m/s]
298.19 K	375.4
308.19 K	324.2
318.2 K	270.3
328.17 K	211.8
